# Results reported in patent US20230276792A1, “SELECTIVE HERBICIDES BASED ON SUBSTITUTED ISOXAZOLIN CARBOXAMIDES AND CLOQUINTOCET-MEXYL” (Bayer Aktiengesellschaft, priority 2020, published 2023).
# Key:
# Assay type in all cases: in vivo
# [1] = system: spring wheat, TRZAS Triso; experiment: Tank-mix post-emergence crop damage, herbicide with and without safener cloquintocet-mexyl, greenhouse; set-up: key to Reduction [Difference]: percentage points of damage: damage without safener minus damage with safener
# Method: (§1) Seeds of crops (spring wheat, TRZAS; spring barley, HORVS; maize, ZEAMA) were placed in sandy loam soil in peat pots, covered with soil and cultivated in a greenhouse under good growth conditions. Two to three weeks after sowing, the test plants were treated at the 1 to 3-leaf stage. The herbicide/safener active compound combinations according to the invention, formulated as wettable powders or emulsion concentrates, and, in parallel tests, the correspondingly formulated individual active compounds were sprayed onto the green parts of the plants in various dosages using an amount of water of 300 l/ha (converted).
# (§2) The pots were returned under good growing conditions in a glasshouse and a visual assessment of herbicidal effects was made at intervals from 1 to 3 weeks after herbicide application (DAT=days after treatment). Assessment was on a percentage basis in comparison with untreated control plants (0%=no injury, 100%=complete kill).
# (§3) Reduction [Difference]=herbicide damage without safener−herbicide damage with safener
# (§4) Reduction [%]=(Reduction [Difference]*100)/herbicide damage without safener
# (§5) b) Plant Species, Variety: TRZAS Triso, Safener (SAF): Cloquintocet-Mexyl
# [2] = system: spring wheat, TRZAS Triso; experiment: Safener seed treatment, post-emergence herbicide application, crop damage; settings: for HER effect + SAF [%] / Reduction [%]: cloquintocet-mexyl 0, 5 g a.i./kg seed; for HER effect [%]: without safener
# From the text: (§6) For safener seed treatment trials, sufficient seed amounts of the respective crops (spring wheat (TRZAS); spring barley (HORVS)) were weighed into screw cap glass bottles with a minimum volume trice of the seeds.
# (§7) As a first step, specified safeners formulated as wettable powder (WP) or wettable granules (WG) were weighed out for the required dosages (g a.i./kg seed), corresponding to the seed amounts. The safener amounts were mixed with a coloured slurry blind formulation type, pre-diluted with milk at 3.5% fat rate (25 mgs slurry formulation plus 2 ml milk per 10 grams of seed). A tube roller was used for coating. The solutions were gradually pipetted each on the rotating seeds followed by coating for min. 3 hours until all liquid had been soaked up by the seeds. Thereafter, the coated seeds were put flat on open trays for drying over night at room temperature.
# (§8) Treated seeds were then placed into pots (7 cm diameter) on the surface of sandy loam, pressed down, flat covered with additional soil and finally covered with sandy soil, also pressed down, watered, and kept under good growth conditions in a greenhouse, until the plants had reached 2-leaf-stage (BBCH 12).
# (§9) At that stage, post-emergence application of the specified herbicides was done on: • a) pot sets containing plants with safener-coated seeds as described above, • b) as a reference, pot sets of plants without seed treatment.
# (§10) The herbicides were formulated as wettable powder (WP). Equivalent to the spray area, compound amounts were weighed out and diluted related to the water application rate (300 l/ha) to an aqueous suspension plus additive (1 l/ha MERO). Dosage related equivalents were conventionally sprayed on trays with the potted plants.
# (§11) After application, the test plants were kept under good growth conditions in a greenhouse. Assessment timings were 10 and 21 days after treatment (DAT) with the herbicide, by visual scoring of the crop damage in % (comparison of untreated with treated plants, either sprayed only with herbicide or with herbicide on plants with treated seeds).
# as §3, §4, §5
# [3] = system: spring barley, HORVS Montoya; experiment: as above; set-up: key to Reduction [Difference]: % crop damage without safener minus % damage with safener; settings: for Reduction [%] / Reduction [Difference] / HER effect + SAF: cloquintocet-mexyl 0, 5 g a.i./kg seed; for HER effect: without safener
# From the text: as §6, §7, §8, §9, §10, §11, §3, §4
# (§12) a) Plant Species, Variety: HORVS Montoya, Safener (SAF): Cloquintocet-Mexyl
# [4] = system: spring barley, HORVS Montoya; experiment: Tank-mix post-emergence crop damage, herbicide with and without safener cloquintocet-mexyl, greenhouse; set-up: key to Reduction [Difference]: damage without safener − damage with safener, % points (0–100% scale)
# Method: as §1, §2, §3, §4, §12
# [5] = 21 DAT, HER dose 8 g a.i./ha, cloquintocet-mexyl 50 g a.i./ha
# [6] = 21 DAT, HER dose 32 g a.i./ha, cloquintocet-mexyl 100 g a.i./ha
# [7] = 21 DAT, HER dose 8 g a.i./ha, cloquintocet-mexyl 100 g a.i./ha
# [8] = 10 DAT, HER dose 2 g a.i./ha, cloquintocet-mexyl 50 g a.i./ha
# [9] = 21 DAT, HER dose 1, 5 g a.i./ha, cloquintocet-mexyl 50 g a.i./ha
# [10] = 21 DAT, HER dose 1, 5 g a.i./ha
# [11] = 21 DAT, HER dose 16 g a.i./ha, cloquintocet-mexyl 100 g a.i./ha
# [12] = 21 DAT, HER dose 2 g a.i./ha, cloquintocet-mexyl 100 g a.i./ha
# [13] = 10 DAT, HER dose 1 g a.i./ha, cloquintocet-mexyl 50 g a.i./ha
smiles,measurement,setting,value
C=CC1(C(=O)NC2C=CC(C(=O)O)C2)CC(c2cc(F)cc(F)c2)=NO1 (centres unmarked) [Example 1.58],HER effect + SAF,[1]; [5],50%
same,Reduction [%],[1]; [5],46%
same,Reduction [Difference],[1]; [5],43
same,HER effect + SAF,[1]; [6],60%
same,Reduction [%],[1]; [6],35%
same,Reduction [Difference],[1]; [6],33
same,HER effect + SAF [%],"[2]; 21 DAT, HER dose 2 g a.i./ha",0%
same,HER effect [%],"[2]; 21 DAT, HER dose 2 g a.i./ha",85%
same,HER effect + SAF [%],"[2]; 21 DAT, HER dose 8 g a.i./ha",10%
same,HER effect [%],"[2]; 21 DAT, HER dose 8 g a.i./ha",93%
same,HER effect + SAF [%],"[2]; 21 DAT, HER dose 32 g a.i./ha",20%
same,Reduction [%],"[2]; 21 DAT, HER dose 32 g a.i./ha",78%
same,HER effect [%],"[2]; 21 DAT, HER dose 32 g a.i./ha",93%
CC1(C(=O)NC2COC(C(=O)OCc3ccccc3)C2)CC(c2cccc(F)c2)=NO1 (mixture of isomers) [Example 1.79],Reduction [Difference],"[1]; 10 DAT, HER dose 24 g a.i./ha, cloquintocet-mexyl 100 g a.i./ha",50
same,Reduction [%],"[3]; 10 DAT, HER dose 24 g a.i./ha",86%
same,Reduction [Difference],"[3]; 10 DAT, HER dose 24 g a.i./ha",60
same,HER effect + SAF [%],"[2]; 10 DAT, HER dose 6 g a.i./ha",0%
same,HER effect [%],"[2]; 10 DAT, HER dose 6 g a.i./ha",30%
same,HER effect + SAF [%],"[2]; 10 DAT, HER dose 24 g a.i./ha",10%
same,HER effect [%],"[2]; 10 DAT, HER dose 24 g a.i./ha",50%
C=CC1(C(=O)NC2CC=C(C(=O)OC)C2)CC(c2cc(F)cc(F)c2)=NO1 (mixture of isomers) [Example 1.60],HER effect + SAF,[4]; [7],0%
same,Reduction [Difference],[4]; [7],80
same,HER effect + SAF,[1]; [5],70%
same,Reduction [%],[1]; [5],25%
same,Reduction [Difference],[1]; [5],23
same,HER effect,"[1]; 21 DAT, HER dose 8 g a.i./ha, without safener",93%
same,HER effect + SAF [%],"[2]; 21 DAT, HER dose 8 g a.i./ha",10%
same,HER effect [%],"[2]; 21 DAT, HER dose 8 g a.i./ha",93%
same,HER effect + SAF [%],"[2]; 21 DAT, HER dose 32 g a.i./ha",10%
same,HER effect [%],"[2]; 21 DAT, HER dose 32 g a.i./ha",95%
COCCOC(=O)C1C=CC(NC(=O)C2(C)CC(c3cc(Cl)cc(C#N)c3)=NO2)C1 (centres unmarked) [Example 1.5],HER effect + SAF,[1]; [8],20%
same,Reduction [%],[1]; [8],60%
same,Reduction [Difference],[1]; [8],30
same,HER effect + SAF,"[3]; 21 DAT, HER dose 8 g a.i./ha",10%
same,Reduction [%],"[3]; 21 DAT, HER dose 8 g a.i./ha",80%
same,Reduction [Difference],"[3]; 21 DAT, HER dose 8 g a.i./ha",40
same,HER effect + SAF,"[3]; 21 DAT, HER dose 32 g a.i./ha",20%
same,Reduction [%],"[3]; 21 DAT, HER dose 32 g a.i./ha",75%
same,Reduction [Difference],"[3]; 21 DAT, HER dose 32 g a.i./ha",60
same,HER effect + SAF [%],"[2]; 21 DAT, HER dose 8 g a.i./ha",10%
same,HER effect [%],"[2]; 21 DAT, HER dose 8 g a.i./ha",90%
same,HER effect + SAF [%],"[2]; 21 DAT, HER dose 32 g a.i./ha",30%
same,HER effect [%],"[2]; 21 DAT, HER dose 32 g a.i./ha",95%
C=CC1(C(=O)NC2C=C(C(=O)OCC#N)OC2)CC(c2cc(F)cc(F)c2)=NO1 (centres unmarked) [Example 1.91],Reduction [%],[1]; [9],71%
same,Reduction [Difference],[1]; [9],50
same,Reduction [%],"[1]; 21 DAT, HER dose 24 g a.i./ha, cloquintocet-mexyl 100 g a.i./ha",75%
same,HER effect + SAF [%],[2]; [10],20%
same,Reduction [%],[2]; [10],71%
same,HER effect [%],[2]; [10],70%
same,HER effect + SAF [%],"[2]; 21 DAT, HER dose 6 g a.i./ha",30%
same,HER effect [%],"[2]; 21 DAT, HER dose 6 g a.i./ha",90%
same,HER effect + SAF [%],"[2]; 21 DAT, HER dose 24 g a.i./ha",20%
same,Reduction [%],"[2]; 21 DAT, HER dose 24 g a.i./ha",75%
same,HER effect [%],"[2]; 21 DAT, HER dose 24 g a.i./ha",80%
CC1(C(=O)NC2C=CC(C(=O)OCCCl)C2)CC(c2cc(F)cc(F)c2)=NO1 (mixture of isomers) [Example 1.47],HER effect + SAF,"[1]; 21 DAT, HER dose 4 g a.i./ha, cloquintocet-mexyl 50 g a.i./ha",0%
same,HER effect + SAF,[1]; [11],5%
same,Reduction [%],[1]; [11],94%
same,Reduction [Difference],[1]; [11],75
same,HER effect + SAF,"[3]; 21 DAT, HER dose 12 g a.i./ha",0%
same,HER effect,"[3]; 21 DAT, HER dose 12 g a.i./ha",20%
same,Reduction [Difference],"[3]; 21 DAT, HER dose 48 g a.i./ha",75
same,HER effect + SAF [%],"[2]; 21 DAT, HER dose 4 g a.i./ha",10%
same,HER effect [%],"[2]; 21 DAT, HER dose 4 g a.i./ha",30%
same,HER effect + SAF [%],"[2]; 21 DAT, HER dose 16 g a.i./ha",10%
same,HER effect [%],"[2]; 21 DAT, HER dose 16 g a.i./ha",80%
C=CC1(C(=O)NC2C=CC(C(=O)OC)C2)CC(c2cc(F)cc(F)c2)=NO1 (centres unmarked) [Example 1.26],HER effect + SAF,[4]; [12],10%
same,Reduction [%],[4]; [12],83%
same,Reduction [Difference],[4]; [12],50
same,HER effect + SAF,"[3]; 21 DAT, HER dose 2 g a.i./ha",30%
same,Reduction [%],"[3]; 21 DAT, HER dose 2 g a.i./ha",68%
same,Reduction [Difference],"[3]; 21 DAT, HER dose 2 g a.i./ha",63
same,HER effect,"[3]; 21 DAT, HER dose 2 g a.i./ha",93%
same,Reduction [%],"[3]; 21 DAT, HER dose 8 g a.i./ha",47%
same,Reduction [Difference],"[3]; 21 DAT, HER dose 8 g a.i./ha",45
same,HER effect,"[3]; 21 DAT, HER dose 8 g a.i./ha",95%
same,HER effect + SAF [%],"[2]; 21 DAT, HER dose 2 g a.i./ha",10%
same,Reduction [%],"[2]; 21 DAT, HER dose 2 g a.i./ha",89%
same,HER effect [%],"[2]; 21 DAT, HER dose 2 g a.i./ha",90%
same,HER effect + SAF [%],"[2]; 21 DAT, HER dose 8 g a.i./ha",30%
same,Reduction [%],"[2]; 21 DAT, HER dose 8 g a.i./ha",68%
same,HER effect [%],"[2]; 21 DAT, HER dose 8 g a.i./ha",93%
CC1(C(=O)NC2C=CC(C(=O)O)C2)CC(c2cc(F)cc(F)c2)=NO1 (centres unmarked) [Example 1.36],Reduction [%],[4]; [13],38%
same,Reduction [Difference],[4]; [13],30
same,HER effect + SAF,"[3]; 21 DAT, HER dose 1 g a.i./ha",10%
same,Reduction [%],"[3]; 21 DAT, HER dose 1 g a.i./ha",67%
same,HER effect,"[3]; 21 DAT, HER dose 1 g a.i./ha",30%
same,Reduction [%],"[3]; 21 DAT, HER dose 4 g a.i./ha",78%
same,Reduction [Difference],"[3]; 21 DAT, HER dose 4 g a.i./ha",73
same,HER effect + SAF,"[3]; 21 DAT, HER dose 16 g a.i./ha",40%
same,Reduction [%],"[3]; 21 DAT, HER dose 16 g a.i./ha",58%
same,Reduction [Difference],"[3]; 21 DAT, HER dose 16 g a.i./ha",55
same,HER effect + SAF [%],"[2]; 21 DAT, HER dose 1 g a.i./ha",0%
same,HER effect [%],"[2]; 21 DAT, HER dose 1 g a.i./ha",85%
same,HER effect + SAF [%],"[2]; 21 DAT, HER dose 4 g a.i./ha",60%
same,Reduction [%],"[2]; 21 DAT, HER dose 4 g a.i./ha",35%
same,HER effect [%],"[2]; 21 DAT, HER dose 4 g a.i./ha",93%
same,HER effect + SAF [%],"[2]; 21 DAT, HER dose 16 g a.i./ha",70%
same,HER effect [%],"[2]; 21 DAT, HER dose 16 g a.i./ha",95%
